According to PubChem BioAssay (NCI):
Several values for one entry are separate records, joined by “and”; a condition that tells them apart may be missing. Equal values may be shown once.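 Tested at 5 concentrations; 48 h exposure; 96-well plates; endpoints linearly interpolated, else capped at highest concentration. GI50 is the concentration that inhibits growth by half. TGI marks complete inhibition of growth.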

Legend:
Assay in all cases: NCI-60 cell line screen, 48 h
[1] = system: TK-10 renal
[2] = system: MALME-3M melanoma
[3] = system: HOP-92 NSCLC
[4] = system: SF-295 CNS
[5] = system: SN12C renal
[6] = system: SNB-19 CNS
[7] = system: NCI-H522 lung
[8] = system: OVCAR-8 ovarian
[9] = system: SK-MEL-2 melanoma
[10] = system: SF-268 CNS

| SMILES | GI50 [1] | TGI [1] | GI50 [2] | TGI [2] | GI50 [3] | TGI [3] | GI50 [4] | TGI [4] | GI50 [5] | TGI [5] [µM] | GI50 [6] | TGI [6] [µM] | GI50 [7] | TGI [7] | GI50 [8] | TGI [8] [µM] | GI50 [9] | TGI [9] | GI50 [10] | TGI [10] [µM] |
| --- | --- | --- | --- | --- | --- | --- | --- | --- | --- | --- | --- | --- | --- | --- | --- | --- | --- | --- | --- | --- |
| O=C(/C=C/C12c3ccccc3C(c3ccccc31)C1C(=O)NC(=O)C12)c1ccc(F)cc1 (stereo not drawn) | 2.69 µM | 6.43 µM | 1.97 µM | 4.02 µM | 1.59 µM | 3.55 µM | 2.01 µM | 4.24 µM | 1.7 µM | 3.29 | 1.65 µM | 3.18 | 2.14 µM | 4.98 µM | 1.86 µM | 4.84 | 2.06 µM | 4.23 µM | 1.65 µM | 3.2 |
| O=C1C=CC(=O)N1c1cccc(N2C(=O)C=CC2=O)c1 | 1.71 µM | 3.13 µM | 3 µM | 6.94 µM | 1.75 µM | 3.78 µM | 21.2 µM | 44.5 µM | 2 µM | 5.31 | 18.6 µM | 35.8 | 1.62 µM | 3.04 µM | 2.25 µM | 5.17 | 2.52 µM | 5.55 µM | 7.09 µM | 19.8 |
| CC1=C(C(=O)Nc2cc(Cl)c3[nH]ncc3c2)C(c2ccc(C(F)(F)F)cc2)CC(=O)N1 (stereo not drawn) | > 17.6 µM | > 25 µM | 13.1 µM | > 25 µM | 0.145 µM | > 25 µM | 8.6 µM | > 25 µM | > 25 µM | > 25 | > 25 µM | > 25 | > 18.7 µM | > 25 µM | > 25 µM | > 25 | > 25 µM | > 25 µM | 11.7 µM | > 25 |
| COc1cc2nccc(Oc3ccc(NC(=O)Nc4cc(C)on4)c(Cl)c3)c2cc1OC | 3.42 µM and 3.9 µM | 13.2 µM and > 10 µM | 1.92 µM and 6.17 µM | 8.17 µM and > 10 µM | 2.58 µM and 0.911 µM | 6.27 µM and 3.44 µM | 2.08 µM and 3.08 µM | 14 µM and > 10 µM | 2.13 µM and 2.56 µM | > 100 | 5.12 µM and > 10 µM | > 100 | 3.47 µM and 3.14 µM | 32.9 µM and > 10 µM | 3.6 µM and 4.67 µM | > 100 | 3.56 µM and 3.33 µM | 10.4 µM and > 10 µM | 2.58 µM and 3.09 µM | > 55.3 |
| Cc1cc(N2CCOCC2)nc(N(CCCNc2ccnc3cc(Cl)ccc23)Cc2ccco2)n1 | 3.3 µM | 12.3 µM | 2.47 µM | 5.69 µM | 1.56 µM | 7.77 µM | 1.67 µM | 6.23 µM | 3.35 µM | 14.6 | 3.81 µM | 15.4 | 2.69 µM | 10.9 µM | 3.15 µM | 12.1 | 2.52 µM | 6.79 µM | 3.43 µM | 16.1 |
| O=C1C2CCN(CC2)C1(CO)CO |  | 32.2 µM |  | 36.6 µM |  | 46.6 µM |  | > 100 µM |  | 33 |  | > 100 |  | 33.2 µM |  | 74.7 |  | > 100 µM |  | > 100 |
| CN1CCN(c2ccc(NC(=O)c3cncnc3Nc3ccc(OCc4ccccn4)c(Cl)c3)cc2)CC1 | 6.78 µM | 15.3 µM | 0.886 µM | 3.69 µM | 3.11 µM | 9.28 µM | 5.98 µM | 13.1 µM | 3.93 µM | 8.72 | 5.11 µM | 11.8 | 4.48 µM | 10.4 µM | 5.4 µM | 15.3 | 4.74 µM | 11 µM | 5.03 µM | 11.2 |
| CCOC(=O)C#Cc1c(C(=O)OCC)nnn1Cc1ccc([N+](=O)[O-])cc1 | 1.87 µM | 3.33 µM | 1.99 µM | 4.29 µM | 2.22 µM | 5.35 µM | 18.9 µM | 38.1 µM | 3.33 µM | 12.1 | 18.9 µM | 45.3 | 1.92 µM | 3.8 µM | 3.72 µM | 11.1 | 13 µM | 26.3 µM | 7.49 µM | 21.5 |
| CC(=O)O[C@H]1[C@@H]2OC(=O)C(CSc3ccccc3)[C@@H]2C[C@H]2O[C@]2(C)CC/C=C(\C)CCC[C@@H]1C (stereo partly drawn) | 1.65 µM | 3.74 µM | 4.05 µM | 19.5 µM | 1.74 µM | 5.43 µM | 3.73 µM | 34.6 µM | 3.45 µM | 14.8 | 11.9 µM | 62.8 | 1.74 µM | 3.68 µM | 3.77 µM | 29.5 | 3.11 µM | 8.69 µM | 3.51 µM | 13.3 |
| CC(CN(C)C)Oc1ccccc1NC1=C(Cl)C(=O)C(Nc2ccccc2OC(C)CN(C)C)=C(Cl)C1=O (stereo not drawn) | 0.479 µM | 0.974 µM | 0.605 µM | 1.38 µM | 0.268 µM | 0.807 µM | 1.83 µM | 3.46 µM | 0.347 µM | 0.853 | 1.71 µM | 3.28 | 0.157 µM | 0.337 µM | 0.337 µM | 1.71 | 1.34 µM | 2.89 µM | 1.49 µM | 3.06 |
| CN(CC(=O)Nc1nc2ccccc2[nH]1)S(=O)(=O)c1ccc(Cl)cc1 | > 100 µM | > 100 µM | > 100 µM | > 100 µM | > 100 µM | > 100 µM |  |  | > 100 µM | > 100 | > 100 µM | > 100 | > 100 µM | > 100 µM | 95.2 µM | > 100 | 2.92 µM | > 100 µM | 43.2 µM | > 100 |
| NS(=O)(=O)CC1CC[CH-]CC1.[Cl-].[Cl-].[Cl-].[Cl-].[Cl-].[Sb+5].c1ccncc1 | > 100 µM | > 100 µM | > 100 µM | > 100 µM | > 100 µM | > 100 µM | > 100 µM | > 100 µM | > 100 µM | > 100 | > 100 µM | > 100 | > 100 µM | > 100 µM | > 100 µM | > 100 | > 100 µM | > 100 µM | > 100 µM | > 100 |
